The text below walks through data of US20060160906A1, “Polyamine analogs as therapeutic agents for ocular diseases” (priority 2004, published 2006).

For this test, the system named is retinal neovascularization. The test is described as follows: Oxygen-induced ischemic retinopathy, retinal neovascularization. The class given is in vivo, neonatal C57BL/6 mice. As to conditions: 100 μg CGC-11144, 1 mg CGC-11047, 750 μg CGC-11093. The protocol: Ischemic retinopathy can be produced in neonatal C57BL/6 mice as described (Smith, L. E et al., Invest. Opthalmol. Vis. Sci. 35: 101-111 (1994)) and serves as a model for retinopathy of prematurity (ROP). Post-natal day 7 (P7) mice and their mothers were placed in an airtight incubator and exposed to an atmosphere of 75±3% oxygen for 5 days. Incubator temperature was maintained at 23±2° C. and oxygen was continuously monitored with a PROOX model 110 oxygen controller (Reming Bioinstruments Co., Redfield, N.Y.). At post-natal day 12, mice were placed back in room air and were given a periocular injection of 3 μl containing 100 μg of CGC-11144 (n=4), 1 mg of CGC-11047 (n=4), 750 μg of CGC-11093 (n=4) or vehicle. On post-natal day 17 (P17) the treated and control mice were euthanized and the amount of retinal neovascularization was measured.
For measurement of retinal neovascularization, eyes were removed and fixed in 2% paraformaldehyde in phosphate buffered saline (PBS) for one hour and rinsed twice in 25% sucrose in PBS. Specimens were incubated in 25% sucrose in PBS overnight and embedded in OCT compound (Miles Diagnostics, Elkhart, Ind.),). 10 μm frozen sections were post-fixed for 15 minutes in 0.5% glutaraldehyde in PBS and washed in PBS. Sections were also histochemically stained with biotinylated Griffonia simplicifolia lectin B4 (GSA, Vector Laboratories, Burlingame, Calif.), which selectively binds to vascular cells. Slides were incubated in methanol/H2O2 for 10 minutes at 4° C., washed with 0.05 M Tris-buffered saline, pH 7.6 (TBS), and incubated for 30 minutes in 10% normal porcine serum. Slides were incubated 2 hours at room temperature with biotinylated GSA and after rinsing with 0.05M TBS, they were incubated with avidin coupled to peroxidase (Vector Laboratories, Burlingame, Calif.) for 30 minutes at room temperature. After being washed for 10 minutes with 0.05M TBS, slides were incubated with diaminobenzidine (Research Genetics, Huntsville, Ala.) to give a brown reaction product.
To perform quantitative assessments, 10 μm frozen serial sections were cut from the iris root on one side of the eye to the iris root on the opposite side of the eye and every tenth section was stained with GSA. Retinas were examined with an Axioskop microscope and images were digitized using a 3 CCD color video camera and a frame grabber. Image-Pro Plus software was used to delineate GSA-stained vascular cells above the internal limiting membrane and the total area of staining was measured.
To investigate the effect of these agents on regression of retinal neovascularization, ischemic retinopathy was induced and left untreated until P17, when the baseline amount of retinal neovascularization was measured in one group of mice. From post-natal days 17 to 20 (P17 to P20) the remainder of the mice were given daily periocular injections of 100 μg of CGC-11144 (n=4), 1 mg of CGC-11047 (n=4), 750 μg of CGC-11093 (n=4) or vehicle. On P20 the mice were euthanized and the amount of retinal neovascularization in the treated and control mice was measured as described above.

As to `CCNCCCCNCCCCNCCCCNCCCCNC/C=C/CNCCCCNCCCCNCCCCNCCCCNCC.Cl.Cl.Cl.Cl.Cl.Cl.Cl.Cl.Cl.Cl` [CGC-11144], the “amount of retinal neovascularization at P20 vs vehicle (regression)” value (daily periocular injections P17 to P20) was “significantly less neovascularization”. For the same compound, the “amount of retinal neovascularization at P17 vs vehicle (suppression)” value (periocular injection at P12) was “significantly less”.
